Source: patent US20050181485A1, “Cellulose digesting enzyme gene and utilization of the gene” (priority 2002, published 2005)
Read-outs that look alike come from different tables or passages of the source.

System: cellobiose dehydrogenase
Assay type: biochemical, Coriolus hirsutus
[1] = 1 mM, incubation at 4° C. overnight

Row | SMILES | Relative activity [1] | other results
1 | [Cl-].[Cl-].[Mg+2] [MgCl2] | 64% | 
2 | [Cl][Ni][Cl] [NiCl2] | 60% | 
3 | [N-]=[N+]=[N-].[Na+] [NaN3, sodium azide] |  | Relative activity: 46%; inhibition of the enzyme: weakly inhibited
4 | O=S(=O)([O-])[O-].[Zn+2] [ZnSO4] | 72% | 
5 | [Cl][Al]([Cl])[Cl] [AlCl2] | 23% | 
6 | CCCCCCCCCCCCOS(=O)(=O)[O-].[Na+] [SDS] | 0% | inhibition of the enzyme (1 mM): strongly inhibited
7 | [Cl-].[Li+] [LiCl2] | 45% | 
8 | O=C(O)CN(CCN(CC(=O)O)CC(=O)O)CC(=O)O [EDTA] |  | Relative activity: 45%; inhibition of the enzyme: weakly inhibited
9 | [Ba+2].[Cl-].[Cl-] [BaCl2] | 71% | 
10 | [Cl][Mn][Cl] [MnCl2] | 35% | 
11 | [Ca+2].[Cl-].[Cl-] [CaCl2] | 65% | 
12 | [Cl-].[Cl-].[Co+2] [CoCl2] |  | Relative activity (1 mM): 53%
13 | [Cl][Hg][Cl] [HgCl2] | 0% | inhibition of the enzyme (1 mM): strongly inhibited
14 | [Cl-].[Cl-].[Zn+2] [ZnCl2] | 32% | 
15 | O=S(=O)([O-])[O-].[Fe+2] [FeSO4] | 0% | 
16 | [Cl][Cu][Cl] [CuCl2] | 53% | 
17 | O=S(=O)([O-])[O-].[Cu+2] [CuSO4] | 82% | 
